One assay concerns Akt. The experiment in a line: Akt phosphorylation in adult zebrafish heart (Western blot). The assay is classed as in vivo. To be noted: wt adult zebrafish, 1 μM in swimming media, 5 minutes. As to the method:
(§1) Adult zebrafish (˜12-months-old) were transferred to swimming medium containing 1 μM of CS drugs, as specified in the following examples. At various time points (5-30 min), as indicated in the following examples, the zebrafish were transferred to perfusion buffer and the hearts were immediately removed and transferred to RIPA lysis buffer (Sigma-Aldrich), and protease inhibitor cocktail (P8340, Sigma-Aldrich), at a 1:100 dilution). The tissue was homogenized in an ultrasonic homogenizer (Microson, NY, USA) and aliquots of the homogenate were stored at −70° C. until used.
Protein dilution and separation on SDS-PAGE electrophoresis, their transfer to a polyvinylidene fluoride membrane were carried out. The membranes were incubated for 1 hour at room temperature with one of the specific antibodies against Phospho-p44/42 MAPK (Erk1/2) (Thr202/Tyr204), Rabbit mAb #4370 (Cell signaling) or Phospho-Akt (Ser473) (193H12), Rabbit mAb #4058 (Cell signaling), at a 1:1000 dilution in TBS containing 0.1% Tween. The membranes were washed with TBS containing 0.1% Tween and exposed to horseradish peroxidase-conjugated secondary goat anti-rabbit IgG antibody (1:50,000). The membranes were stripped prior to their exposure to a different antibody. Detection was carried out with the aid of a Luminata™ Crescendo Western HRP Substrates, according to the manufacturer's instructions.
In general terms: Immunoblotting shows a protein as a band on a membrane.

Assay [1] concerns zebrafish accordion mutant (acc) larvae heart. As to the kind of experiment: In-vivo heart contractility measurements in zebrafish acc mutant larvae. Also on record: species or system zebrafish (Danio rerio). To be noted: 1 nM, 90 minutes. The protocol:
Ouabain, bufalin, digoxin, acetylcholine, carbachol, […] (pp2) and U0126 (1,4-diamino-2,3-dicyano-1,4-bis(2-aminophenylthio)butadiene) were purchased from Sigma-Aldrich Inc., Israel. The compounds were dissolved in egg water (0.3 g Instant Ocean Salt in distilled water) to a final selected concentration, as specified in the following examples. The larvae in 20 μL of E3 medium were transferred to the egg water solution containing one or two of the above specified drugs of choice, and incubated for 60-90 minutes at 28° C.
Filming process Zebrafish larvae heart imaging was performed using an Olympus CKX41 (Japan) […] microscope with ×10 or ×20 magnification, and integrated incandescent illumination. A FastCam imi-tech (Korea) high speed digital camera with 640×480 pixel gray scale image sensor was mounted on the microscope, using ImCam software (IMI Technology, Co. Ltd) for high speed video recording. The larvae were anesthetized by placing them in filming/anesthetizing medium. Each larva in 0.5 ml filming/anesthetizing medium was transferred to a 96-well tissue culture plate at room temperature and sequential images of the heart were obtained, with the larvae positioned on their side, at 80 fps during 10 seconds with a shutter speed of 0.016 seconds.
Physiological parameters of cardiovascular performance, as indicated hereinbelow, were evaluated in the zebrafish larvae. […] Sequential still frames were analyzed to capture ventricular end-systole and end-diastole images. […] The Ejection Fraction (EF) was determined by an independent estimate of ventricular volume. […] EF was then calculated according to the equation: EF=(EDV-ESV)/EDV*100. Heart rate (HR) was measured in beats per minute. Cardiac output (CO) was calculated according to the equation: CO=(EDV-ESV)*HR. A minimum of five sequential pairs of systolic and diastolic cycles were measured and analyzed in 9-12 larvae for each treatment.

The test system of the next assay is ERK. As to the kind of experiment: ERK phosphorylation in adult zebrafish heart (Western blot). The assay is classed as in vivo. To be noted: wt adult zebrafish, 1 μM in swimming media, 5 minutes. As to the method: as §1
Protein dilution and separation on SDS-PAGE electrophoresis, their transfer to a polyvinylidene fluoride membrane were carried out. […] The membranes were washed with TBS containing 0.1% Tween and exposed to horseradish peroxidase-conjugated secondary goat anti-rabbit IgG antibody (1:50,000). The membranes were stripped prior to their exposure to a different antibody. Detection was carried out with the aid of a Luminata™ Crescendo Western HRP Substrates, according to the manufacturer's instructions.

`C[C@@H]1O[C@@H](O[C@H]2C[C@@H](O)[C@]3(CO)[C@H]4[C@H](O)C[C@]5(C)[C@@H](C6=CC(=O)OC6)CC[C@]5(O)[C@@H]4CC[C@]3(O)C2)[C@H](O)[C@H](O)[C@H]1O` [ouabain, 3-(alpha-L-Rhamnopyranosyloxy)-1beta,5beta,11alpha,14,19-pentahydroxy-5beta-card-20(22)-enolide]: the “increase in Akt phosphorylation in the heart” value with Akt came out at 100±20.06%. Further, the “effect on heart contractility” value in assay [1] is “no effect on heart contractility”. The “increase in ERK phosphorylation in the heart” value in the assay with ERK came to 130±17.95%.

These data come from patent publication US20180369264A1, “COMBINATION OF A CARDIAC STEROID AND AN AKT INHIBITOR FOR THE TREATMENT OF CARDIOVASCULAR DISEASES AND DISORDERS” (YISSUM RESEARCH DEVELOPMENT COMPANY OF THE HEBREW …, priority 2015, published 2018).
